In patent publication US10821115B2, “Compounds that inhibit Mcl-1 protein” (priority 2017, dated 2020) one finds IC50 data, which are given here for 15 compounds.

The target in assay [1] is recombinant human Mcl-1 (residues 171-327) / Bim interaction (Homo sapiens (Human), UniProt Q07820). The assay can be described thus: biochemical. In kind it is binding. To be noted: read-out: Mcl-1 HTRF IC50. Background: Time-resolved FRET reads energy transfer from a long-lived donor to a nearby acceptor.
Assay [2] has as its system human multiple myeloma cell line, OPM-2. The assay can be described thus: Cell viability assay (OPM-2 10 FBS), CellTiter-Glo. It counts as cell-based. The method in brief: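 Steps: plate cells at 3000/well in 10% FBS growth medium, add serially diluted compound, incubate 16 h at 37 °C with 5% CO2, add detection reagent and read luminescence after 25 min. A 4-parameter logistic model gives IC50.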
(In general: In ATP-based viability assays light output follows the ATP content of the culture.)

The mark [3] stands for this setting: TR-FRET, Mcl-1(171-327) / biotin-Bim (51-76).
The mark [4] stands for this setting: Homo sapiens, OPM-2, 16 h, read-out: OPM-2 10% FBS IC50 IP, OPM-2 cells, 10% FBS, 16 h, CellTiter-Glo.
Where [5] appears, read: read-out: OPM-2 10% FBS IC50 IP, OPM-2 cells, 10% FBS, 16 h, CellTiter-Glo.

pIC50: −log10 of the molar value. Read-outs that look alike come from different tables or passages of the source.

Chain of recombinant human Mcl-1 (residues 171-327) / Bim interaction (Q07820 171-327): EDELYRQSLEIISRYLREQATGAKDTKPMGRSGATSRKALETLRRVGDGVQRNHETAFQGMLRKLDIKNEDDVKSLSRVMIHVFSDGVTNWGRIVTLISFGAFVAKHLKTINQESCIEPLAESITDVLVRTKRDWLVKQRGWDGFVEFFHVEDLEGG

Broadly, the pIC50 is −log10 of the IC50, conventionally taken in molar units. As to `CO[C@@]1(CC(=O)N2CC[C@@H](N(C)C)C2)/C=C/C[C@H](C)[C@@H](C)S(=O)(=O)NC(=O)c2ccc3c(c2)N(C[C@@H]2CC[C@H]21)C[C@@]1(CCCc2cc(Cl)ccc21)CO3` (single isomer, unassigned) [Example 100318], the pIC50 in assay [1] (setting [3]) was 10.02; in assay [2] (setting [4]) it was 6.94.
For the compound `CCOP(=O)(OCC)C(F)(F)[C@]1(O)/C=C/C[C@H](C)[C@@H](C)S(=O)(=O)NC(=O)c2ccc3c(c2)N(C[C@@H]2CC[C@H]21)C[C@@]1(CCCc2cc(Cl)ccc21)CO3` [Example 100067, diethyl (((1S,3′R,6′R,7′S,8′E,11′S,12′R)-6-chloro-7′-hydroxy-11′,12′-dimethyl-13′,13′-dioxido-15′-oxo-3,4-dihydro-2H-spiro[naphthalene-1,22′-[20]oxa[13]thia[1,14]diazatetracyclo [14.7.2.0~3,6~.0~19,24~]pentacosa[8,16,18,24]tetraen]-7′-yl)(difluoro)methyl)phosphonate], the pIC50 in assay [1] (setting [3]) is 9.00; in assay [2] (setting [5]), 6.57.
Turning to `C[C@@H]1[C@@H](C)CCC[C@](O)(CC(=O)O)[C@@H]2CC[C@H]2CN2C[C@@]3(CCCc4cc(Cl)ccc43)COc3ccc(cc32)C(=O)NS1(=O)=O` [Example 100097, ((1S,3′R,6′R,7′S,11′S,12′R)-6-chloro-7′-hydroxy-11′,12′-dimethyl-13′,13′-dioxido-15′-oxo-3,4-dihydro-2H-spiro[naphthalene-1,22′-[20]oxa[13]thia[1,14]diazatetracyclo [14.7.2.0~3,6~.0~19,24~]pentacosa[16,18,24]trien]-7′-yl)acetic acid], the pIC50 in assay [1] (setting [3]) was 10.09; in assay [2] (setting [4]), 5.28.
Take `C[C@@H]1[C@@H](C)C/C=C/[C@@](O)(C#CCCO)[C@@H]2CC[C@H]2CN2C[C@@]3(CCCc4cc(Cl)ccc43)COc3ccc(cc32)C(=O)NS1(=O)=O` [Example 100422, (1S,3′R,6′R,7′S,8′E,11′S,12′R)-6-chloro-7′-hydroxy-7′-(4-hydroxy-1-butyn-1-yl)-11′,12′-dimethyl-3,4-dihydro-2H,15′H-spiro[naphthalene-1,22′-[20]oxa[13]thia[1,14]diazatetracyclo [14.7.2.0~3,6~.0~19,24~]pentacosa[8,16,18,24]tetraen]-15′-one 13′,13′-dioxide]: the pIC50 is 9.76 in assay [1] (setting [3]) and 6.74 in assay [2] (setting [4]).
As for `C[C@@H]1[C@@H](C)C/C=C/[C@](O)(c2ncccc2F)[C@@H]2CC[C@H]2CN2C[C@@]3(CCCc4cc(Cl)ccc43)COc3ccc(cc32)C(=O)NS1(=O)=O` [Example 100385, (1S,3′R,6′R,7′R,8′E,11′S,12′R)-6-chloro-7′-(3-fluoro-2-pyridinyl)-7′-hydroxy-11′,12′-dimethyl-3,4-dihydro-2H,15′H-spiro[naphthalene-1,22′-[20]oxa[13]thia[1,14]diazatetracyclo [14.7.2.0~3,6~.0~19,24~]pentacosa[8,16,18,24]tetraen]-15′-one 13′,13′-dioxide], the pIC50 was 9.84 in assay [1] (setting [3]) and 6.84 in assay [2] (setting [4]).
For the compound `CO[C@@]1(CC(=O)N(C)C(C)(C)C)/C=C/C[C@H](C)[C@@H](C)S(=O)(=O)NC(=O)c2ccc3c(c2)N(C[C@@H]2CC[C@H]21)C[C@@]1(CCCc2cc(Cl)ccc21)CO3` [Example 100008, 2-((1 S,3′R,6′R,7′S,8′E,11′S, 12′R)-6-chloro-7′-methoxy-11′,12′-dimethyl-13′,13′-dioxido-15′-oxo-3,4-dihydro-2H-spiro[naphthalene-1,22′-[20]oxa[13]thia[1,14]diazatetracyclo[14.7.2.0-3,6˜.0˜19,24˜]pentacosa[8,16,18,24]tetraen]-7′-yl)-N-methyl-N-(2-methyl-2-propanyl)acetamide], the pIC50 is 9.77 in assay [1] (setting [3]) and 6.27 in assay [2] (setting [4]).
For `CO[C@@]1(c2csc(C)n2)/C=C/C[C@H](C)[C@@H](C)S(=O)(=O)NC(=O)c2ccc3c(c2)N(C[C@@H]2CC[C@H]21)C[C@@]1(CCCc2cc(Cl)ccc21)CO3` [Example 100517, (1S,3′R,6′R,7′S,8′E,11′S,12′R)-6-chloro-7′-methoxy-11′,12′-dimethyl-7′-(2-methyl-1,3-thiazol-4-yl)-3,4-dihydro-2H,15′H-spiro[naphthalene-1,22′-[20]oxa[13]thia[1,14]diazatetracyclo [14.7.2.0~3,6~.0~19,24~]pentacosa[8,16,18,24]tetraen]-15′-one 13′,13′-dioxide], the values for the pIC50 in assay [1] (setting [3]) and in assay [2] (setting [4]) were 8.98 and 5.46, respectively.
In the case of `C[C@@H]1[C@@H](C)C/C=C/[C@@](O)(Cc2ccccn2)[C@@H]2CC[C@H]2CN2C[C@@]3(CCCc4cc(Cl)ccc43)COc3ccc(cc32)C(=O)NS1(=O)=O` [Example 100242, (1S,3′R,6′R,7′S,8′E,11′S,12′R)-6-chloro-7′-hydroxy-11′,12′-dimethyl-7′-(2-pyridinylmethyl)-3,4-dihydro-2H,15′H-spiro[naphthalene-1,22′-[20]oxa[13]thia[1,14]diazatetracyclo [14.7.2.0~3,6~.0~19,24~]pentacosa[8,16,18,24]tetraen]-15′-one 13′,13′-dioxide], the pIC50 was 8.67 in assay [1] (setting [3]) and 5.84 in assay [2] (setting [5]).
`C[C@@H]1[C@@H](C)C[C@H]2C=CC[C@](O)(C2)[C@@H]2CC[C@H]2CN2C[C@@]3(CCCc4cc(Cl)ccc43)COc3ccc(cc32)C(=O)NS1(=O)=O` [Example 100057, (1S,3′R,6′R,7′S,11′R,13′S,14′R)-6-chloro-7′-hydroxy-13′,14′-dimethyl-3,4-dihydro-2H,17′H-spiro[naphthalene-1,24′-[22]oxa[15]thia[1,16]diazapentacyclo [16.7.2.1~7,11~.0~3,6~.0~21,26~]octacosa [9,18,20,26]tetraen]-17′-one 15′,15′-dioxide]: the pIC50 in assay [1] (setting [3]) is 9.25; in assay [2] (setting [4]), 5.59.
Regarding `Cc1ncc([C@@]2(O)/C=C/C[C@H](C)[C@@H](C)S(=O)(=O)NC(=O)c3ccc4c(c3)N(C[C@@H]3CC[C@H]32)C[C@@]2(CCCc3cc(Cl)ccc32)CO4)n1C` (single isomer, unassigned) [Example 100555], the figures for the pIC50 in assay [1] (setting [3]) and in assay [2] (setting [4]) were 10.00 and 6.95, respectively.
In the same order, the values of `CC[C@@H]1CCCC[C@](O)(CO)[C@@H]2CC[C@H]2CN2C[C@@]3(CCCc4cc(Cl)ccc43)COc3ccc(cc32)C(=O)NS1(=O)=O` [Example 100036, (1S,3′R,6′R,7′R,12′R)-6-chloro-12′-ethyl-7′-hydroxy-7′-(hydroxymethyl)-3,4-dihydro-2H,15′H-spiro[naphthalene-1,22′-[20]oxa[13]thia[1,14]diazatetracyclo [14.7.2.0~3,6~.0~19,24~]pentacosa[16,18,24]trien]-15′-one 13′,13′-dioxide] are 9.05 and 5.70.
Turning to `COCCC#C[C@]1(OC)/C=C/C[C@H](C)[C@@H](C)S(=O)(=O)NC(=O)c2ccc3c(c2)N(C[C@@H]2CC[C@H]21)C[C@@]1(CCCc2cc(Cl)ccc21)CO3` [Example 100423, (1S,3′R,6′R,7′S,8′E,11′S,12′R)-6-chloro-7′-methoxy-7′-(4-methoxy-1-butyn-1-yl)-11′,12′-dimethyl-3,4-dihydro-2H,15′H-spiro[naphthalene-1,22′-[20]oxa[13]thia[1,14]diazatetracyclo [14.7.2.0~3,6~.0~19,24~]pentacosa[8,16,18,24]tetraen]-15′-one 13′,13′-dioxide], the pIC50 was 10.25 in assay [1] (setting [3]) and 7.00 in assay [2] (setting [4]).
On the same counts, the results for `CO[C@@]1(c2nccn2C)CCC[C@H](C)[C@@H](C)S(=O)(=O)NC(=O)c2ccc3c(c2)N(C[C@@H]2CC[C@H]21)C[C@@]1(CCCc2cc(Cl)ccc21)CO3` [Example 100230, (1S,3′R,6′R,7′S,11′S,12′R)-6-chloro-7′-methoxy-11′,12′-dimethyl-7′-(1-methyl-1H-imidazol-2-yl)-3,4-dihydro-2H,15′H-spiro[naphthalene-1,22′-[20]oxa[13]thia[1,14]diazatetracyclo [14.7.2.0~3,6~.0~19,24~]pentacosa[16,18,24]trien]-15′-one 13′,13′-dioxide] are 9.33 and 6.26.
Consider `COCCN(C)S(=O)(=O)C[C@]1(O)CCC[C@H](C)[C@@H](C)S(=O)(=O)NC(=O)c2ccc3c(c2)N(C[C@@H]2CC[C@H]21)C[C@@]1(CCCc2cc(Cl)ccc21)CO3` [Example 100165, 1-((1S,3′R,6′R,7′S,11′S,12′R)-6-chloro-7′-hydroxy-11′,12′-dimethyl-13′,13′-dioxido-15′-oxo-3,4-dihydro-2H-spiro[naphthalene-1,22′-[20]oxa[13]thia[1,14]diazatetracyclo [14.7.2.0~3,6~.0~19,24~]pentacosa[16,18,24]trien]-7′-yl)-N-(2-methoxyethyl)-N-methylmethanesulfonamide], for which the pIC50 in assay [1] (setting [3]) was 9.34; in assay [2] (setting [4]), 6.24.
Turning to `CCCCN1CCN(C[C@]2(OC)/C=C/C[C@H](C)[C@@H](C)S(=O)(=O)NC(=O)c3ccc4c(c3)N(C[C@@H]3CC[C@H]32)C[C@@]2(CCCc3cc(Cl)ccc32)CO4)CC1` [Example 301, (1S,3′R,6′R,7′S,8′E,11′S,12′R)-7′-((4-butyl-1-piperazinyl)methyl)-6-chloro-7′-methoxy-11′,12′-dimethyl-3,4-dihydro-2H,15′H-spiro[naphthalene-1,22′-[20]oxa[13]thia[1,14]diazatetracyclo [14.7.2.0~3,6~.0~19,24~]pentacosa[8,16,18,24]tetraen]-15′-one 13′,13′-dioxide], the pIC50 in assay [1] (0.1 nM Mcl-1(171-327), 0.05 nM biotin-Bim (51-76)) is 9.71; in assay [2] (Homo sapiens, OPM-2, 16 h, read-out: OPM-2 10% FBS IC50 IP, OPM-2 cells, 10% FBS, 16 h incubation) it was 6.85.
